Where two headings read alike, the source gives them in different places.
Experiments:
[1] = test system: human erythroid progenitors (CFU-E, BFU-E); assay: Colony forming cell assay, human erythroid progenitor (CFU-E, BFU-E) proliferation; format: cell-based; conditions: 336 h, single agent, 14 days, CFU-E and BFU-E
Method: (§1) Clonogenic progenitors of human erythroid (CFU-E, BFU-E), granulocyte-monocyte (CFU-GM), and multipotential (CFU-GEMM) lineages were assessed in a semi-solid methylcellulose-based media formulation containing rhIL-3 (10 ng/mL), rhGM-SCF (10 ng/mL), rhSCF (50 ng/mL), and Epo (3 U/mL).
(§2) In addition, 5-FU was evaluated at 1.0, 0.1 and 0.01 μg/mL as a positive control for toxicity.
(§3) Normal human bone marrow light density cells (lot #0210901), derived from normal bone marrow, (Lonza, Maryland) and qualified at ReachBio, were stored at −152° C. until required for the assay. On the day of the experiment, the cells were thawed rapidly, diluted in 10 mL of Iscove's modified Dulbecco's medium containing 10% fetal bovine serum (IMDM+10% FBS) and washed by centrifugation (approximately 1500 r.p.m. for 10 minutes at room temperature). The supernatant was discarded and the cell pellets were resuspended in a known volume of IMDM+10% FBS. A cell count (3% glacial acetic acid) and viability assessment (trypan blue exclusion test) was performed for the bone marrow sample.
Clonogenic progenitors of human megakaryocyte (CFU-Mk) were assessed in a collagen-based media formulation containing rhIL-3 (10 ng/mL), rhIL-6 (10 ng/mL), and Tpo (50 ng/mL). Clonogenic progenitors of the human erythroid (CFU-E and BFU-E), myeloid (CFU-GM), and megakaryocyte (CFU-Mk) lineages were set up in the media formulations described above. Individually, the test compounds were added to the medium to give the final desired concentrations (10, 3.33, 1, 0.333, 0.1, 0.0333, 0.01 and 0.00333 μM). […]
(§4) Human myeloid and erythroid progenitor assays were initiated at 1.2×10^4 cells per culture (lot #0210921) and the human megakaryocyte assays were initiated at 1.2×10^5 cells per culture (lot #0210921). Following 14 days in culture, erythroid and myeloid colonies were assessed microscopically in situ and scored by trained personnel. […] The colonies were assessed microscopically and scored by trained personnel and divided into the following categories based on size: CFU-Mk (3-20), CFU-Mk (21-49), and CFU-Mk (≥50).
(§5) Statistical analysis: The mean±standard deviation of three replicate cultures was calculated for both erythroid and myeloid progenitors. […]
(§6) Erythroid (CFU-E and BFU-E) and myeloid (CFU-GM) colony enumeration was performed by trained personnel. In addition, the distribution of colony types as well as general colony and cellular morphology was analyzed. The variance in colony number detected in replicate cultures was representative of the historical coefficient of variation for colony enumeration using these types of assays. The number and distribution of colonies detected in the solvent control (0.1% DMSO for single agents) was no different from the standard control (containing no compound and no DMSO). […]

[2] = test system: human myeloid progenitors (CFU-GM); assay: Colony forming cell assay, human myeloid (granulocyte-monocyte, CFU-GM) progenitor proliferation; format: cell-based; conditions: single agent; for IC50: Homo sapiens, 336 h, 14 days, CFU-GM
Method: as §1, §2, §3
(§7) Clonogenic progenitors of human megakaryocyte (CFU-Mk) were assessed in a collagen-based media formulation containing rhIL-3 (10 ng/mL), rhIL-6 (10 ng/mL), and Tpo (50 ng/mL). Clonogenic progenitors of the human erythroid (CFU-E and BFU-E), myeloid (CFU-GM), and megakaryocyte (CFU-Mk) lineages were set up in the media formulations described above. Individually, the test compounds were added to the medium to give the final desired concentrations (10, 3.33, 1, 0.333, 0.1, 0.0333, 0.01 and 0.00333 μM). […] Solvent control cultures (containing no compound but 0.1% DMSO) as well as standard controls (containing no compound and no DMSO) were also initiated. Once introduced into the matrices, the tubes were vortexed to ensure an equal distribution throughout.
(§8) Human myeloid and erythroid progenitor assays were initiated at 1.2×10^4 cells per culture (lot #0210921) and the human megakaryocyte assays were initiated at 1.2×10^5 cells per culture (lot #0210921). Following 14 days in culture, erythroid and myeloid colonies were assessed microscopically in situ and scored by trained personnel. The colonies were divided into the following categories based on size and morphology: CFU-E, BFU-E, CFU-GM, and CFU-GEMM. The human megakaryocyte cultures were transferred from the 35 mm dishes to labeled glass slides, fixed with methanol/acetone fixative, and then stained with anti-human CD41 antibody and an alkaline phosphate detection system according to manufacturers' instructions. The colonies were assessed microscopically and scored by trained personnel and divided into the following categories based on size: CFU-Mk (3-20), CFU-Mk (21-49), and CFU-Mk (≥50).
(§9) Statistical analysis: The mean±standard deviation of three replicate cultures was calculated for both erythroid and myeloid progenitors. Two-tailed standard t-tests were performed to assess if there was a difference in the number of colonies generated between solvent control and treated cultures. Due to the potential subjectivity of colony enumeration, a p value of less than 0.01 is deemed significant. To calculate the concentration of 50% inhibition of colony growth (IC50) for each compound, a dose response curve was generated plotting the log of the compound concentration versus the percentage of control colony growth using GraphPad Prism 9 software.
as §6

[3] = test system: human megakaryocyte progenitors (CFU-Mk); assay: Colony forming cell assay, human megakaryocyte progenitor (CFU-Mk) proliferation; format: cell-based; conditions: for IC50: Homo sapiens, read-out: IC50, total CFU-Mk (megakaryocyte progenitor proliferation)
Method: as §2, §3, §7, §8, §9
Other than the test compounds being combined, the only change from the method in Example 1 was a 0.2% DMSO solvent control instead of 0.1% DMSO. The results are provided in FIGS. 2A-4C (FIGS. 2A-2C are human megakaryocytes (CFU-MK), FIGS. 3A-3C are human erythroid (CFU-E, BFU-E), and FIGS. 4A-4C are human granulocyte-monocyte (CFU-GM).

[4] = test system: R/R MF; conditions: cited from earlier work
[5] = test system: MF patients; conditions: cited from earlier work
[6] = test system: human myeloid, erythroid and megakaryocyte progenitors; assay: Colony forming cell assays taken together (erythroid, myeloid, megakaryocyte progenitors); format: cell-based; conditions: single agents compared
Method: as §1, §2
Normal human bone marrow light density cells (lot #0210901), derived from normal bone marrow, (Lonza, Maryland) and qualified at ReachBio, were stored at −152° C. until required for the assay. […]
Clonogenic progenitors of human megakaryocyte (CFU-Mk) were assessed in a collagen-based media formulation containing rhIL-3 (10 ng/mL), rhIL-6 (10 ng/mL), and Tpo (50 ng/mL). […]
as §4, §5

[7] = test system: PIM1; conditions: read-out: Preclinical IC50, PIM1; cited from earlier work
[8] = test system: PIM2; conditions: read-out: Preclinical IC50, PIM2; cited from earlier work
[9] = test system: PIM3; conditions: read-out: Preclinical IC50, PIM3; cited from earlier work
[10] = test system: R/R AML; conditions: R/R AML (n = 30); Other (n = 9); cited from earlier work
[11] = PERSIST 2, monotherapy 200 mg BID, N = 106
[12] = COMFORT 1, monotherapy 5-25 mg BID, N = 155
[13] = ≥50 × 10^9/L PLT, regimen RUX+Paraclisib
[14] = JAKARTA, monotherapy 400 mg QD, N = 96

In the case of `C1=C/COCc2cc(ccc2OCCN2CCCC2)Nc2nccc(n2)-c2cccc(c2)COC/1` [pacritinib], the IC50 [1] is reported as 280 nM, the IC50 [2] is reported as 170 nM and the “concentrations at which myeloid progenitor proliferation was (significantly, additionally) inhibited” value ([2]; vs 0.1% DMSO solvent control, p<0.01) is reported as 0.1 µM. The IC50 ([3]; single agent) was 340 nM, the “SVR35 at Week 24” value ([4]; <50 × 10^9/L PLT, monotherapy) was 29% and the “TEAE Anemia, All Gr” value [5, 11] was 24%. For the same molecule, the “TEAE Anemia, ≥3 Gr” value [5, 11] was 22%, the “TEAE Neutropenia, ≥3 Gr” value [5, 11] was 7% and the “TEAE Thrombocytopenia, All Gr” value [5, 11] was 34%. The “TEAE Thrombocytopenia, ≥3 Gr” value [5, 11] was 32%.

For `N#CC[C@H](C1CCCC1)n1cc(-c2ncnc3[nH]ccc23)cn1` [ruxolitinib], the IC50 [1] was 110 nM, the IC50 [2] was 100 nM and the IC50 ([3]; single agent) was 200 nM. The “concentrations at which total CFU-Mk was (significantly) inhibited” value ([3]; single agent, vs solvent control) was at least 0.033 µM, the “relative potency of inhibition of megakaryocyte progenitors” value ([3]; single agents compared) was “most potent” and the “relative potency of inhibition of progenitor proliferation” value [6] was “most potent”. For the same molecule, the “TEAE Anemia, All Gr” value [5, 12] was 96%, the “TEAE Anemia, ≥3 Gr” value [5, 12] was 45% and the “TEAE Neutropenia, All Gr” value [5, 12] was 19%. For the same molecule, the “TEAE Neutropenia, ≥3 Gr” value [5, 12] was 7%, the “TEAE Thrombocytopenia, All Gr” value [5, 12] was 70% and the “TEAE Thrombocytopenia, ≥3 Gr” value [5, 12] was 13%.

For `C[C@H]1CN(c2c(NC(=O)c3ccc(F)c(-c4c(F)cccc4F)n3)cnc3c2CC[C@H]3O)C[C@@H](N)[C@@H]1O` [INCB053914], the IC50 [7] is listed as 0.24 nM, the IC50 [8] is listed as 30 nM and the IC50 [9] is listed as 0.12 nM. The “Hem AE, G3+ anemia” value [10] was “G3+ Anemia (18%)”, the “Hem AE, G3+ thrombocytopenia” value [10] was “(13%)” and the “Non-hem AE, ALT/AST increased” value [10] was “(36%),”. The “Non-hem AE, diarrhea” value [10] was “diarrhea (21%), rash”, the “Non-hem AE, nausea” value [10] was “nausea (23%),” and the “Non-hem AE, rash” value [10] was “(15%)”.

For `CCOc1c([C@H](C)n2nc(C)c3c(N)ncnc32)cc(Cl)c(F)c1[C@@H]1CNC(=O)C1` [Parsaclisib, parsaclisib], the “SVR35 at Week 24” value [4, 13] is listed as 3% and the “TSS50 at Week 24” value [4, 13] is listed as 11%.

For `Cc1cnc(Nc2ccc(OCCN3CCCC3)cc2)nc1Nc1cccc(S(=O)(=O)NC(C)(C)C)c1` [Fedratinib, fedratinib], the “TEAE Anemia, All Gr” value [5, 14] is given as 99%, the “TEAE Anemia, ≥3 Gr” value [5, 14] is given as 43% and the “TEAE Neutropenia, All Gr” value [5, 14] is given as 28%. For the same molecule, the “TEAE Neutropenia, ≥3 Gr” value [5, 14] was 8%, the “TEAE Thrombocytopenia, All Gr” value [5, 14] was 63% and the “TEAE Thrombocytopenia, ≥3 Gr” value [5, 14] was 17%.

In the case of `Cc1noc2c1-c1ccccc1C(c1ccc(Cl)cc1)=N[C@H]2CC(N)=O` [Pelabresib, pelabresib], the “SVR35 at Week 24” value ([4]; ≥75 × 10^9/L PLT, monotherapy) is given as 11% and the “TSS50 at Week 24” value ([4]; ≥75 × 10^9/L PLT, monotherapy) is given as 28%.

Source: patent US20260306490A1, “PIM1 INHIBITOR FOR TREATING MYELOPROLIFERATIVE NEOPLASMS” (Sumitomo Pharma America, Inc., priority 2022, published 2026)
